Structures can show the parent of a compound that is named as a salt.
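Also: Luminescence-based viability readout, five doses per compound, normalized against on-plate DMSO and empty-well controls, followed by dose-response curve fitting for every drug.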

For this assay, the system named is HCT116. Briefly: efficacy (fitted maximal change in viability relative to DMSO control); higher = less cytotoxic (negative = loss of viability). As to conditions: 48 h.
With `CN[C@@H]1[C@@H](O)[C@@H](O[C@@H]2[C@@H](O)[C@H](O[C@H]3O[C@H](CN)[C@@H](O)[C@H](O)[C@H]3O)[C@@H](N)C[C@H]2NC(=O)C(O)CN)OC[C@]1(C)O.O=S(=O)(O)O` (stereo partly drawn) [Isepamicin sulfate], the efficacy is -15.7%.

For `O=C(/C=C/c1ccc(O)cc1)c1ccc(O)cc1O` [Isoliquiritigenin], the efficacy was -62%.

In the case of `CC(C)NCC(O)c1ccc(O)c(O)c1` (stereo not drawn) [Isoprenaline hydrochloride], the efficacy was -16.7%.

On to `CC1=C(/C=C/C(C)=C/C=C/C(C)=C\C(=O)O)C(C)(C)CCC1` [Isotretinoin], for which the efficacy is -13.5%.

For `CCn1c(=O)c2c(nc(/C=C/c3ccc(OC)c(OC)c3)n2C)n(CC)c1=O` [Istradefylline], the efficacy is -9.26%.

With `N#CCC1(n2cc(-c3ncnc4[nH]ccc34)cn2)CN(C2CCN(C(=O)c3ccnc(C(F)(F)F)c3F)CC2)C1` [Itacitinib], the efficacy is -26.4%.

As to `CCC(C)N1\N=C/N(C1=O)C2=CC=C(C=C2)N3CCN(CC3)C4=CC=C(OC[C@H]5CO[C@@](C[N]6C=NC=N6)(O5)C7=CC=C(Cl)C=C7Cl)C=C4` (stereo partly drawn) [Itraconazole], the efficacy is -32.6%.

Regarding `COc1cc2c(cc1OC)CC(=O)N(CCCN(C)C[C@H]1Cc3cc(OC)c(OC)cc31)CC2` [Ivabradine hydrochloride], the efficacy is -21.3%.

Take `CC(=O)OCCN1C(=O)c2c(C)nc3ccc([S+](=O)([O-])N4CCOCC4)cc3c2C1=O` [Ivachtin]: the efficacy was -16.7%.

For `N#Cc1ccnc(N2C(=O)CC[C@H]2C(=O)N(c2cncc(F)c2)[C@H](C(=O)NC2CC(F)(F)C2)c2ccccc2Cl)c1` [Ivosidenib], the efficacy was -25.4%.

In the case of `C=CC(=O)Nc1ccc(F)c(-c2ncnc3[nH]cc(C(=O)OCC)c23)c1` [JAK3i], the efficacy is -66%.

Regarding `CCOc1ccc(Nc2nc(-c3c(C)nc4ccccn34)cs2)cc1` [JK-184], the efficacy was -56.2%.

Take `COc1cc(SC)ccc1C(=O)N1CCC(Cc2ccccc2)CC1` [JX-401]: the efficacy was -43.4%.

On to `O=C(Oc1ccc([N+](=O)[O-])cc1)N1CCC(C(O)(c2ccc3c(c2)OCO3)c2ccc3c(c2)OCO3)CC1` [JZL-184], for which the efficacy amounted to 9.17%.

In the case of `O=C(Oc1ccc([N+](=O)[O-])cc1)N1CCN(Cc2cccc(Oc3ccccc3)c2)CC1` [JZL-195], the efficacy is -38.1%.

Regarding `CCOC(=O)c1ccnc(CNCC(=O)N(CC)CCN(C)C)c1` [KDM5-C70], the efficacy came to 11.1%.

In the case of `NC(=O)c1cccc(-c2cccc(OC(=O)NC3CCCCC3)c2)c1` [KDS-4103], the efficacy was -18%.

For the compound `CCOC(=O)c1c(/C(C#N)=C\N)c2ccc(Cl)c(Cl)c2n1C` [KH-CB19], the efficacy was -9.36%.

Take `COc1cc([C@@H](CC(=O)O)c2ccc(C)c(CN3C[C@@H](C)Oc4ccccc4[S+]3(=O)[O-])c2)cc2nnn(C)c12` [KI-696]: the efficacy was -21.8%.

`C[S+](=O)([O-])N(Cc1ccco1)CC(O)Cn1c2ccccc2c2ccccc21` (stereo not drawn) [KL001]: the efficacy was -21.8%.

On to `CN(C(Cc1ccc(OS(=O)(=O)c2cccc3cnccc23)cc1)C(=O)N1CCN(c2ccccc2)CC1)S(=O)(=O)c1cccc2cnccc12` (stereo not drawn) [KN-62], for which the efficacy is -21.2%.

As to `CCCNC(=O)Nc1ccc(Oc2ncnc3cc(OC)c(OC)cc23)cc1Cl` [KRN-633], the efficacy was -12.8%.

As to `OC1=CC=C(C=C1)\C2=C(O)\C(=O)C3=C(O2)C=C(O)C=C3O` [Kaempferol], the efficacy is 12.7%.

With `O=C(c1ccccc1)c1ccc2n1CCC2C(=O)O` (stereo not drawn) [Ketorolac], the efficacy was -7.25%.

Consider `CN1CCC(=C2c3ccccc3CC(=O)c3sccc32)CC1` [Ketotifen], for which the efficacy is -39.1%.

As to `c1coc(CNc2ncnc3nc[nH]c23)c1` [Kinetin], the efficacy was -22.2%.

As for `N[C@@H](Cc1cc(I)c(Oc2cc(I)c(O)c(I)c2)c(I)c1)C(=O)O` [L-Thyroxine], the efficacy is -8.54%.

For the compound `CN[C@@H](C)C(=O)N[C@H](C(=O)N1CCC[C@H]1c1nc(C(=O)c2ccc(F)cc2)cs1)C1CCCCC1` [LCL-161], the efficacy is -23.8%.

Regarding `C/C(O)=C(\C#N)C(=O)Nc1cc(Br)ccc1Br` [LFM-A13], the efficacy was -11.7%.

For the compound `CC(N[C@H]1C[C@@H]1c1ccccc1)c1ccc2c(c1)OCCO2` (stereo partly drawn) [LSD1-C76], the efficacy was -23.9%.

Regarding `NCCCC[C@H](NC(=O)[C@@H](NC(=O)[C@H](Cc1c[nH]c2ccccc12)NC(=O)[C@H](CCCCN)NC(=O)[C@H](CCCCN)NC(=O)[C@H](Cc1c[nH]c2ccccc12)NC(=O)[C@H](Cc1c[nH]c2ccccc12)NC(=O)[C@H](CCCCN)NC(=O)[C@@H](N)CCCCN)C(c1ccccc1)c1ccccc1)C(N)=O` [LTX-315], the efficacy is -89.2%.

As to `COC[C@@H](NC(C)=O)C(=O)NCc1ccccc1` [Lacosamide], the efficacy is -14.4%.

On to `NC\1=N\C(=O)N(\C=C1)[C@@H]2CS[C@H](CO)O2` [Lamivudine], for which the efficacy is -6.75%.

Take `Cc1c(OCC(F)(F)F)ccnc1C[S+]([O-])c1nc2ccccc2[nH]1` (stereo not drawn) [Lansoprazole]: the efficacy is -18.3%.

With `C[S+](=O)([O-])c1cc(F)cc2c3c(n(Cc4ccc(Cl)cc4)c12)[C@@H](CC(=O)O)CC3` [Laropiprant], the efficacy was -18.4%.

As to `Nc1cccc2c1CN([C@H]1CCC(=O)NC1=O)C2=O` [Lenalidomide], the efficacy is -14%.

As for `N#Cc1ccc(C(c2ccc(C#N)cc2)n2cncn2)cc1` [Letrozole], the efficacy was -10.3%.

As for `C[C@H]1COC2=C3N1\C=C(C(O)=O)/C(=O)C3=CC(=C2N4CCN(C)CC4)F` [Levofloxacin], the efficacy was -12.3%.

On to `C[C@@H]\1CC(=O)N\N=C1C2=CC=C(NN=C(C#N)C#N)C=C2` [Levosimendan], for which the efficacy is -64.6%.

For `Clc1cccc(C(c2ccc3nc[nH]c3c2)n2ccnc2)c1` (stereo not drawn) [Liarozole], the efficacy was -23%.

Consider `CC1(C)Cc2c(-c3ccccc3)c(-c3ccc(Cl)cc3)c(CC(=O)O)n2C1` [Licofelone], for which the efficacy is -36.6%.

Take `OCc1ccc(-c2nn(Cc3ccccc3)c3ccccc23)o1` [Lificiguat]: the efficacy is -57.1%.

Consider `CC#CCn1c(N2CCC[C@@H](N)C2)nc2c1c(=O)n(Cc1nc(C)c3ccccc3n1)c(=O)n2C` [Linagliptin], for which the efficacy is -31.7%.

In the case of `O=C1N(c2ccccc2)c2ccccc2C1(Cc1ccncc1)Cc1ccncc1` [Linopirdine], the efficacy was -12.1%.

As for `C[S+](=O)([O-])Oc1ccc2c(NC(N)=O)c(C(=O)c3ccc(Cl)cc3Cl)oc2c1` [Lirimilast], the efficacy was -17.7%.

With `CCN1\C=C(C(O)=O)/C(=O)C2=C1C(=C(N3CCNC(C)C3)C(=C2)F)F` (stereo not drawn) [Lomefloxacin hydrochloride], the efficacy is -18.8%.

Turning to `O=C(O)c1nn(Cc2ccc(Cl)cc2Cl)c2ccccc12` [Lonidamine], the efficacy is -7.79%.

As to `Cc1c(F)cc(C(=O)NC2CC2)cc1-c1ccc(C(=O)NCC(C)(C)C)cn1` [Losmapimod], the efficacy is -18.8%.

(Values after the supplement of paper PMC10290057.)
